From ChEMBL document CHEMBL4396898, “Design and synthesis of 3-aminophthalazine derivatives and structural analogues as PDE5 inhibitors: anti-allodynic effect against neuropathic pain in a mouse model” (Eur J Med Chem, 2019)
Values after ≈ are worked out from the molar mass of the structure shown.

Columns and labels:
physchem [1] = conditions: methanol:water:HCl, pH 1
physchem [2] = conditions: saline

SMILES	remaining at 96 h (physchem [1])	solubility at 24 h (physchem [2])
COc1ccc(CNc2nn(C)c3ccc(C(F)(F)F)cc23)cc1	100%	
Clc1cccc(Nc2nnc(-c3ccccc3)c3ccccc23)c1		63 µg/mL (≈ 190 µM)
COc1ccc(CNc2nn(-c3cccnc3)c3ccc(C(F)(F)F)cc23)cc1	100%	15 µg/mL (≈ 37.7 µM)
